Reference: US20240374609A1, “NITROSAMINE IMPURITY, VARENICLINE PHARMACEUTICAL COMPOSITION CAPABLE OF REDUCING GENERATION OF NITROSAMINE IMPURITIES AND PREPARATION AND USE THEREOF” (VIWIT PHARMACEUTICALCO., LTD., priority 2021, published 2024)
Like-named read-outs stand apart in the source and are kept apart here.

Columns and labels:
[1] = tested on: Tetranychus cinnabarinus; experiment: Leaf-disc spraying method, insecticidal activity; format: in vivo; details: 500 mg/L, spray 2.5 mL, investigated after 24 h, blank control 0%, read-out: mortality rate
Protocol: The bactericidal or insecticidal activity of the nitrosamine impurity compound P08 was determined according to the existing technical standards or specifications (e.g., Chinese agricultural industry standard NY/T 1156.4-2006, pesticides guidelines for laboratory bioactivity tests, bactericide, part 4: potted plant test for fungicide control of powdery mildew on wheat; Chinese agricultural industry standard NY/T 1156.5-2006, pesticides guidelines for laboratory bioactivity tests, bactericide, part 5: detached leaf test for fungicide inhibition of Rhizoctonia solani on faba bean; Chinese agricultural industry standard […], pesticides guidelines for laboratory bioactivity tests, insecticide, part 6: the immersion test for insecticide activity; Chinese agricultural industry standard NY/T 1154.9-2008, pesticides guidelines for laboratory bioactivity tests, insecticide, part 9: spraying method).
According to the Chinese agricultural industry standard NYT 1154.13-2008, pesticides guidelines for laboratory bioactivity tests, insecticide, part 13: leaf-disc spraying method, the Tetranychus cinnabarinus were inoculated on a leaf-disc of faba bean as the biological test materials. […]

[2] = tested on: Salmonella Typhimurium TA102; experiment: Ames test, plate incorporation method, TA102; format: cell-based
Protocol: (§1) Salmonella Typhimurium TA97a, TA98, TA100, TA102, and TA1535 from MOLT OX, USA, were purchased from Shanghai Bioplus Biotech. Co., Ltd. The test was carried out using Salmonella typhimurium strains that were identified as meeting the requirements.
(§2) Rat liver S9 from Shanghai Bioplus Biotech. Co., Ltd.
(§3) The experiments were performed using the plate incorporation method.
(§4) Dose selection: The experiments were performed using 5 mg, 2.5 mg, 1.25 mg, 0.625 mg, 0.3125 mg, and 0.15625 mg per dish.
(§5) Test substance preparation: nitrosamine impurity compound P08 was prepared to a solution of 50 mg/ml with dimethyl-sulfoxide, and diluted with dimethyl-sulfoxide to give the solutions of 25 mg/ml, 12.5 mg/ml, 6.25 mg/ml, 3.125 mg/ml, and 1.5625 mg/ml successively.
(§6) 0.1 ml of frozen bacterial solutions TA97a, TA98, TA100, TA102 and TA1535 were inoculated into the 10 ml nutrient broth mediums respectively, and cultured at 37° C. (100/min) for 10 h with shaking (100 times/min). 2.0 ml of top layer medium containing 0.5 mmol/L histidine −0.5 mmol/L biotin was dispensed into test tubes, sterilized by 0.103 MPa for 20 min, and kept in a water bath at 50° C. Then, 0.1 ml of the test substance solution, 0.5 ml of the S9 mixture (when metabolic activation was required) and 0.1 ml of the bacterial solution were added into each tube successively, mixed sufficiently, and poured into the bottom layer agar plates quickly. Then, the plates were turned to distribute even. After being placed horizontally for condensation and solidification, the plates were inverted and incubated in an incubator at 37° C. for 48 h, and the number of reverse mutation colonies per dish was counted. Three parallel plates of each dose were made, containing the spontaneous reverse mutation group, the solvent control group and the positive control group.
(§7) The data were expressed as means±standards deviation (x±s), and SPSS 19.0 was used for calculation of data analysis.
(§8) If the test substance tested by the above test strain is negative both with and without S9, then the test substance is determined to be mutagenic negative.

[3] = tested on: Salmonella Typhimurium TA100; experiment: Ames test, plate incorporation method, TA100; format: cell-based
Protocol: (§9) Salmonella Typhimurium TA97a, TA98, TA100, TA102, and TA1535 from MOLT OX, USA, were purchased from Shanghai Bioplus Biotech.
as §2, §3, §4, §6, §7, §8

[4] = tested on: Salmonella typhimurium; experiment: Ames test, overall result determination; format: cell-based; details: in the presence and absence of metabolic activation system
Protocol: Whether nitrosamine impurity compound P08 is genotoxic (capable of mutagenicity or carcinogenesis) was detected.
as §8

[5] = tested on: Salmonella Typhimurium TA97a; experiment: Ames test, plate incorporation method, TA97a; format: cell-based
Protocol: as §9, §2, §3, §4, §6, §7, §8

[6] = tested on: Salmonella Typhimurium TA98; experiment: Ames test, plate incorporation method, TA98; format: cell-based
Protocol: as §9, §2, §3, §4, §6, §7, §8

[7] = tested on: Salmonella Typhimurium TA1535; format: cell-based
Protocol: as §1, §2, §3, §4, §5, §6, §7, §8

In the case of `O=NN1CC2CC(C1)c1cc3nccnc3cc12` [P08], the mortality at 500 µg/mL [1] is reported as 19.6%, the “number of reverse mutation colonies per dish (x ± s)” value (shortened to “number … per dish (x ± s)”) ([2]; TA102, +S9, 156.25 μg/dish) is reported as 249 ± 13 and the “number … per dish (x ± s)” value ([2]; TA102, +S9, 312.5 μg/dish) is reported as 253 ± 24. The “number … per dish (x ± s)” value ([2]; TA102, +S9, 625 μg/dish) was 296 ± 21, the “number … per dish (x ± s)” value ([2]; TA102, +S9, 1250 μg/dish) was 272 ± 17 and the “number … per dish (x ± s)” value ([2]; TA102, +S9, 2500 μg/dish) was 283 ± 11. For the same molecule, the “number … per dish (x ± s)” value ([2]; TA102, +S9, 5000 μg/dish) was 320 ± 15, the “number … per dish (x ± s)” value ([2]; TA102, −S9, 156.25 μg/dish) was 208 ± 13 and the “number … per dish (x ± s)” value ([2]; TA102, −S9, 312.5 μg/dish) was 237 ± 6. For the same molecule, the “number … per dish (x ± s)” value ([2]; TA102, −S9, 625 μg/dish) was 236 ± 20, the “number … per dish (x ± s)” value ([2]; TA102, −S9, 1250 μg/dish) was 245 ± 4 and the “number … per dish (x ± s)” value ([2]; TA102, −S9, 2500 μg/dish) was 219 ± 11. For the same molecule, the “number … per dish (x ± s)” value ([2]; TA102, −S9, 5000 μg/dish) was 211 ± 8, the “number … per dish (x ± s)” value ([3]; TA100, +S9, 156.25 μg/dish) was 225 ± 9 and the “number … per dish (x ± s)” value ([3]; TA100, +S9, 312.5 μg/dish) was 234 ± 6. The “number … per dish (x ± s)” value ([3]; TA100, +S9, 625 μg/dish) was 271 ± 11, the “number … per dish (x ± s)” value ([3]; TA100, +S9, 1250 μg/dish) was 287 ± 13 and the “number … per dish (x ± s)” value ([3]; TA100, +S9, 2500 μg/dish) was 364 ± 19. The “number … per dish (x ± s)” value ([3]; TA100, +S9, 5000 μg/dish) was 378 ± 18, the “number … per dish (x ± s)” value ([3]; TA100, −S9, 156.25 μg/dish) was 218 ± 20 and the “number … per dish (x ± s)” value ([3]; TA100, −S9, 312.5 μg/dish) was 234 ± 31. The “number … per dish (x ± s)” value ([3]; TA100, −S9, 625 μg/dish) was 224 ± 3, the “number … per dish (x ± s)” value ([3]; TA100, −S9, 1250 μg/dish) was 220 ± 10 and the “number … per dish (x ± s)” value ([3]; TA100, −S9, 2500 μg/dish) was 193 ± 25. The “number … per dish (x ± s)” value ([3]; TA100, −S9, 5000 μg/dish) was 206 ± 25, the “mutagenicity determination (Ames test)” value [4] was “mutagenic positive” and the “number … per dish (x ± s)” value ([5]; +S9, 156.25 μg/dish) was 209 ± 16. The “number … per dish (x ± s)” value ([5]; +S9, 312.5 μg/dish) was 248 ± 13, the “number … per dish (x ± s)” value ([5]; +S9, 625 μg/dish) was 242 ± 17 and the “number … per dish (x ± s)” value ([5]; +S9, 1250 μg/dish) was 279 ± 5. For the same molecule, the “number … per dish (x ± s)” value ([5]; +S9, 2500 μg/dish) was 297 ± 8, the “number … per dish (x ± s)” value ([5]; +S9, 5000 μg/dish) was 310 ± 19 and the “number … per dish (x ± s)” value ([5]; −S9, 156.25 μg/dish) was 158 ± 11. For the same molecule, the “number … per dish (x ± s)” value ([5]; −S9, 312.5 μg/dish) was 175 ± 6, the “number … per dish (x ± s)” value ([5]; −S9, 625 μg/dish) was 175 ± 12 and the “number … per dish (x ± s)” value ([5]; −S9, 1250 μg/dish) was 160 ± 15. For the same molecule, the “number … per dish (x ± s)” value ([5]; −S9, 2500 μg/dish) was 165 ± 10, the “number … per dish (x ± s)” value ([5]; −S9, 5000 μg/dish) was 159 ± 5 and the “number … per dish (x ± s)” value ([6]; TA98, +S9, 156.25 μg/dish) was 33 ± 6. For the same molecule, the “number … per dish (x ± s)” value ([6]; TA98, +S9, 312.5 μg/dish) was 34 ± 1, the “number … per dish (x ± s)” value ([6]; TA98, +S9, 625 μg/dish) was 35 ± 2 and the “number … per dish (x ± s)” value ([6]; TA98, +S9, 1250 μg/dish) was 41 ± 6. The “number … per dish (x ± s)” value ([6]; TA98, +S9, 2500 μg/dish) was 59 ± 4, the “number … per dish (x ± s)” value ([6]; TA98, +S9, 5000 μg/dish) was 53 ± 6 and the “number of colonies relative to that of the solvent control” value ([6]; TA98, adding S9, 2500 μg/dish) was “more than twice”. For the same molecule, the “number … per dish (x ± s)” value ([6]; TA98, −S9, 156.25 μg/dish) was 29 ± 2, the “number … per dish (x ± s)” value ([6]; TA98, −S9, 312.5 μg/dish) was 27 ± 3 and the “number … per dish (x ± s)” value ([6]; TA98, −S9, 625 μg/dish) was 28 ± 2. The “number … per dish (x ± s)” value ([6]; TA98, −S9, 1250 μg/dish) was 30 ± 3, the “number … per dish (x ± s)” value ([6]; TA98, −S9, 2500 μg/dish) was 31 ± 3 and the “number … per dish (x ± s)” value ([6]; TA98, −S9, 5000 μg/dish) was 32 ± 2. For the same molecule, the “number … per dish (x ± s)” value ([7]; TA1535, +S9, 156.25 μg/dish) was 21 ± 0, the “number … per dish (x ± s)” value ([7]; TA1535, +S9, 312.5 μg/dish) was 20 ± 3 and the “number … per dish (x ± s)” value ([7]; TA1535, +S9, 625 μg/dish) was 35 ± 7. The “number … per dish (x ± s)” value ([7]; TA1535, +S9, 1250 μg/dish) was 34 ± 3, the “number … per dish (x ± s)” value ([7]; TA1535, +S9, 2500 μg/dish) was 38 ± 5 and the “number … per dish (x ± s)” value ([7]; TA1535, +S9, 5000 μg/dish) was 46 ± 6. The “number of colonies relative to that of the solvent control” value ([7]; TA1535, no S9, 625 μg/dish) was “more than twice”, the “number of colonies relative to that of the solvent control” value ([7]; TA1535, with S9, 5000, 2500, 1250 and 625 μg/dish, dose-response relationship) was “more than twice” and the “number … per dish (x ± s)” value ([7]; TA1535, −S9, 156.25 μg/dish) was 23 ± 2. For the same molecule, the “number … per dish (x ± s)” value ([7]; TA1535, −S9, 312.5 μg/dish) was 36 ± 1, the “number … per dish (x ± s)” value ([7]; TA1535, −S9, 625 μg/dish) was 42 ± 4 and the “number … per dish (x ± s)” value ([7]; TA1535, −S9, 1250 μg/dish) was 18 ± 2. The “number … per dish (x ± s)” value ([7]; TA1535, −S9, 2500 μg/dish) was 28 ± 2 and the “number … per dish (x ± s)” value ([7]; TA1535, −S9, 5000 μg/dish) was 20 ± 2.
